Laboratory results published in patent US10798941B2, “Microbiocidal oxadiazole derivatives” (SYNGENTA PARTICIPATIONS AG, priority 2016, dated 2020).

Tests used:
[1] = test system: Puccinia recondita f. Sp. Tritici; experiment: Puccinia recondita f. sp. tritici / wheat / leaf disc curative (brown rust); assay type: in vivo; conditions: foliar, 144 h, 200 ppm in the applied formulation, wheat leaf segments cv. Kanzler, applied 1 day after inoculation, assessed 6 to 8 days after application, vs untreated, read-out: disease control
Protocol: (§1) Leaf disks or leaf segments of various plant species are cut from plants grown in a greenhouse. The cut leaf disks or segments are placed in multiwell plates (24-well format) onto water agar. The leaf disks are sprayed with a test solution before (preventative) or after (curative) inoculation. Compounds to be tested are prepared as DMSO solutions (max. 10 mg/ml) which are diluted to the appropriate concentration with 0.025% Tween20 just before spraying. The inoculated leaf disks or segments are incubated under defined conditions (temperature, relative humidity, light, etc.) according to the respective test system. A single evaluation of disease level is carried out 3 to 14 days after inoculation, depending on the pathosystem. Percent disease control relative to the untreated check leaf disks or segments is then calculated.
Wheat leaf segments cv. Kanzler are placed on agar in multiwell plates (24-well format). The leaf segments are then inoculated with a spore suspension of the fungus. Plates were stored in darkness at 19° C. and 75% relative humidity. The formulated test compound diluted in water was applied 1 day after inoculation. The leaf segments were incubated at 19° C. and 75% relative humidity under a light regime of 12 hours light/12 hours darkness in a climate cabinet and the activity of a compound was assessed as percent disease control compared to untreated when an appropriate level of disease damage appears in untreated check leaf segments (6 to 8 days after application).
(§2) The following compounds at 200 ppm in the applied formulation give at least 80% disease control in this test when compared to untreated control leaf disks under the same conditions, which show extensive disease development.

[2] = test system: Glomerella Lagenarium (Colletotrichum Lagenarium); experiment: Glomerella lagenarium (Colletotrichum lagenarium) liquid culture / cucumber / preventative (anthracnose); assay type: cell-based; conditions: Colletotrichum orbiculare; 20 ppm in the applied formulation; liquid culture in PDB, 24° C., inhibition of growth measured photometrically 3 to 4 days after application, vs untreated; read-out: disease control
Protocol: Mycelia fragments or conidia suspensions of a fungus prepared either freshly from liquid cultures of the fungus or from cryogenic storage, are directly mixed into nutrient broth. DMSO solutions of the test compound (max. 10 mg/ml) are diluted with 0.025% Tween20 by a factor of 50 and 10 μl of this solution is pipetted into a microtiter plate (96-well format). The nutrient broth containing the fungal spores/mycelia fragments is then added to give an end concentration of the tested compound. The test plates are incubated in the dark at 24° C. and 96% relative humidity. The inhibition of fungal growth is determined photometrically after 2 to 7 days, depending on the pathosystem, and percent antifungal activity relative to the untreated check is calculated.
Conidia of the fungus from cryogenic storage are directly mixed into nutrient broth (PDB—potato dextrose broth). After placing a (DMSO) solution of test compound into a microtiter plate (96-well format), the nutrient broth containing the fungal spores is added.
The following compounds at 20 ppm in the applied formulation give at least 80% disease control in this test when compared to untreated control under the same conditions, which show extensive disease development.

[3] = test system: Puccinia recondita f. Sp. Tritici; experiment: Puccinia recondita f. sp. tritici / wheat / leaf disc preventative (brown rust); assay type: in vivo; conditions: foliar, 168 h, 200 ppm in the applied formulation, wheat leaf segments cv. Kanzler, preventative, inoculated 1 day after application, assessed 7 to 9 days after application, vs untreated, read-out: disease control
Protocol: as §1
Wheat leaf segments cv. Kanzler were placed on agar in multiwell plates (24-well format) and sprayed with the formulated test compound diluted in water. The leaf disks were inoculated with a spore suspension of the fungus 1 day after application. The inoculated leaf segments were incubated at 19° C. and 75% relative humidity (rh) under a light regime of 12 hours light/12 hours darkness in a climate cabinet and the activity of a compound was assessed as percent disease control compared to untreated when an appropriate level of disease damage appears in untreated check leaf segments (7 to 9 days after application).
as §2

Structure (SMILES) | pest or weed control at 200 ppm [1] | inhibition of growth at 20 ppm [2] | pest or weed control at 200 ppm [3]
FC(F)(F)c1nc(-c2ccc(Cn3ncnc3C(F)(F)F)cc2)no1 [Compound 1.38, 5-(trifluoromethyl)-3-[4-[[5-(trifluoromethyl)-1,2,4-triazol-1-yl]methyl]phenyl]-1,2,4-oxadiazole] | ≥ 80% | ≥ 80% | –
FC(F)(F)c1nc(-c2ccc(Cn3cc(I)cn3)cc2)no1 [Compound 1.44, 3-[4-[(4-iodopyrazol-1-yl)methyl]phenyl]-5-(trifluoromethyl)-1,2,4-oxadiazole] | ≥ 80% | ≥ 80% | ≥ 80%
N#Cc1ncn(Cc2ccc(-c3noc(C(F)(F)F)n3)cc2)c1C#N [Compound 1.45, 1-[[4-[5-(trifluoromethyl)-1,2,4-oxadiazol-3-yl]phenyl]methyl]imidazole-4,5-dicarbonitrile] | ≥ 80% | ≥ 80% | ≥ 80%
FC(F)(F)c1nc(-c2ccc(Cn3cnc(Cl)c3Cl)cc2)no1 [Compound 1.46, 3-[4-[(4,5-dichloroimidazol-1-yl)methyl]phenyl]-5-(trifluoromethyl)-1,2,4-oxadiazole] | ≥ 80% | ≥ 80% | ≥ 80%
Fc1ccc2ccn(Cc3ccc(-c4noc(C(F)(F)F)n4)cc3)c2c1 [Compound 1.54, 3-[4-[(6-fluoroindol-1-yl)methyl]phenyl]-5-(trifluoromethyl)-1,2,4-oxadiazole] | ≥ 80% | ≥ 80% | –
FC(F)(F)c1cnn(Cc2ccc(-c3noc(C(F)(F)F)n3)cc2)c1 [Compound 1.55, 5-(trifluoromethyl)-3-[4-[[4-(trifluoromethyl)pyrazol-1-yl]methyl]phenyl]-1,2,4-oxadiazole] | ≥ 80% | ≥ 80% | ≥ 80%
O=Cc1cccn1Cc1ccc(-c2noc(C(F)(F)F)n2)cc1 [Compound 1.62, 1-[[4-[5-(trifluoromethyl)-1,2,4-oxadiazol-3-yl]phenyl]methyl]pyrrole-2-carbaldehyde] | ≥ 80% | ≥ 80% | ≥ 80%
FC(F)(F)c1nc(-c2ccc(Cn3cc(Cl)cn3)cc2)no1 [Compound 1.67, 3-[4-[(4-chloropyrazol-1-yl)methyl]phenyl]-5-(trifluoromethyl)-1,2,4-oxadiazole] | ≥ 80% | ≥ 80% | ≥ 80%
O=Cc1nccn1Cc1ccc(-c2noc(C(F)(F)F)n2)cc1 [Compound 1.71, 1-[[4-[5-(trifluoromethyl)-1,2,4-oxadiazol-3-yl]phenyl]methyl]imidazole-2-carbaldehyde] | ≥ 80% | – | –
N#Cc1cnn(Cc2ccc(-c3noc(C(F)(F)F)n3)cc2)c1 [Compound 1.76, 1-[[4-[5-(trifluoromethyl)-1,2,4-oxadiazol-3-yl]phenyl]methyl]pyrazole-4-carbonitrile] | ≥ 80% | ≥ 80% | ≥ 80%
FC(F)(F)c1nc(-c2ccc(Cn3cc(Br)cn3)cc2)no1 [Compound 1.77, 3-[4-[(4-bromopyrazol-1-yl)methyl]phenyl]-5-(trifluoromethyl)-1,2,4-oxadiazole] | ≥ 80% | ≥ 80% | –
Cc1cn(Cc2ccc(-c3noc(C(F)(F)F)n3)cc2)c(C)n1 [Compound 1.78, 3-[4-[(2,4-dimethylimidazol-1-yl)methyl]phenyl]-5-(trifluoromethyl)-1,2,4-oxadiazole] | ≥ 80% | – | –
CCOC(=O)c1c(C)ncn1Cc1ccc(-c2noc(C(F)(F)F)n2)cc1 [Compound 1.80, ethyl 5-methyl-3-[[4-[5-(trifluoromethyl)-1,2,4-oxadiazol-3-yl]phenyl]methyl]imidazole-4-carboxylate] | ≥ 80% | ≥ 80% | ≥ 80%
Cn1c(=O)c2c(ncn2Cc2ccc(-c3noc(C(F)(F)F)n3)cc2)n(C)c1=O [Compound 1.81, 1,3-dimethyl-7-[[4-[5-(trifluoromethyl)-1,2,4-oxadiazol-3-yl]phenyl]methyl]purine-2,6-dione] | ≥ 80% | ≥ 80% | ≥ 80%
FC(F)(F)c1nc(-c2ccc(Cn3cnc(-c4ccccc4)c3)cc2)no1 [Compound 1.82, 3-[4-[(4-phenylimidazol-1-yl)methyl]phenyl]-5-(trifluoromethyl)-1,2,4-oxadiazole] | ≥ 80% | ≥ 80% | ≥ 80%
Cc1cn(Cc2ccc(-c3noc(C(F)(F)F)n3)cc2)cn1 [Compound 1.83, 3-[4-[(4-methylimidazol-1-yl)methyl]phenyl]-5-(trifluoromethyl)-1,2,4-oxadiazole] | ≥ 80% | ≥ 80% | ≥ 80%
COC(=O)c1cncn1Cc1ccc(-c2noc(C(F)(F)F)n2)cc1 [Compound 1.89, methyl 3-[[4-[5-(trifluoromethyl)-1,2,4-oxadiazol-3-yl]phenyl]methyl]imidazole-4-carboxylate] | ≥ 80% | ≥ 80% | ≥ 80%
Cc1nccn1Cc1ccc(-c2noc(C(F)(F)F)n2)cc1F [Compound 1.123, 3-[3-fluoro-4-[(2-methylimidazol-1-yl)methyl]phenyl]-5-(trifluoromethyl)-1,2,4-oxadiazole] | ≥ 80% | – | ≥ 80%
Cc1cn(Cc2ccc(-c3noc(C(F)(F)F)n3)cn2)c(C)n1 [Compound 1.134, 3-[6-[(2,4-dimethylimidazol-1-yl)methyl]-3-pyridyl]-5-(trifluoromethyl)-1,2,4-oxadiazole] | ≥ 80% | – | –
FC(F)(F)c1nc(-c2ccc(Cn3ccnc3)nc2)no1 [Compound 1.141, 3-[6-(imidazol-1-ylmethyl)-3-pyridyl]-5-(trifluoromethyl)-1,2,4-oxadiazole] | ≥ 80% | – | ≥ 80%
FC(F)(F)c1nc(-c2ccc(Cn3cncn3)nc2)no1 [Compound 1.143, 3-[6-(1,2,4-triazol-1-ylmethyl)-3-pyridyl]-5-(trifluoromethyl)-1,2,4-oxadiazole] | ≥ 80% | ≥ 80% | –
Cc1cn(Cc2ccc(-c3noc(C(F)(F)F)n3)cc2F)c(C)n1 [Compound 1.145, 3-[4-[(2,4-dimethylimidazol-1-yl)methyl]-3-fluoro-phenyl]-5-(trifluoromethyl)-1,2,4-oxadiazole] | ≥ 80% | – | ≥ 80%
N#Cc1ncnn1Cc1ccc(-c2noc(C(F)(F)F)n2)nc1 [Compound 1.258, 2-[[6-[5-(trifluoromethyl)-1,2,4-oxadiazol-3-yl]-3-pyridyl]methyl]-1,2,4-triazole-3-carbonitrile] | ≥ 80% | ≥ 80% | –
CNC(=O)c1cn(Cc2ccc(-c3noc(C(F)(F)F)n3)cc2)nn1 [Compound 1.272, N-methyl-1-[[4-[5-(trifluoromethyl)-1,2,4-oxadiazol-3-yl]phenyl]methyl]triazole-4-carboxamide] | ≥ 80% | – | –
CON=C1CCN(Cc2ccc(-c3noc(C(F)(F)F)n3)cc2)CC1 [Compound 1.293, N-methoxy-1-[[4-[5-(trifluoromethyl)-1,2,4-oxadiazol-3-yl]phenyl]methyl]piperidin-4-imine] | ≥ 80% | – | –
